Measured values reported in US9066938B2, “GPBP-1 inhibition and its therapeutic use” (Fibrostatin S.L., priority 2012, dated 2015).

Assays:
[1] = tested on: CDKN1A (p21) and DDIT3 (CHOP) genes; assay: qPCR of CDKN1A (p21) and DDIT3 (CHOP) mRNA in A549 cells; format: cell-based, human; details: doxorubicin 1 μM, T12 50 μM, 24 h
Description: FIG. 3. T12 enhances doxorubicin-induced expression of CDKN1A (p21) and DDIT3 (CHOP) genes in A549 cells. Cells were treated with doxorubicin (1 μM) and/or T12 (50 μM) for 24 h. Total RNA was isolated, reverse-transcribed, and CDKN1A (p21) and DDIT3 (CHOP) mRNA levels assessed by qPCR using TaqMan™ commercial probes and primers. Results are expressed as relative quantity (RQ) respect to untreated cells. A representative assay is shown.
Total RNA from cell samples was extracted using Ilustra RNAspin™ Mini (Ge Healthcare) according to the manufacturer's instructions. One μg of total RNA from each sample was converted to cDNA (RT) using the High Capacity cDNA Reverse Transcription Kit (Applied Biosystems). For Real-Time PCR (qPCR), 1.5 μl of cDNA was mixed with TaqMan™ Gene Expression Master Mix and the specific TaqMan™ probes and primers for COL4A3BP/GPBP, DDIT3/CHOP, CDKN1A/p21, PROM1/CD133, NANOG, MMP10 and HPRT1, all from Applied Biosystems. Hypoxanthine-guanine phosphoribosyltransferase (HPRT1) primer was used as endogenous control. qPCR was performed on a StepOnePlus™ Real-Time PCR system (Applied Biosystems) according to manufacturer's recommendations. The relative levels of mRNAs were calculated with the ΔΔCt method using untreated samples as reference (the comparative Ct method).

A549 cells [2] = format: cell-based
Description: FIG. 2. […] Cells were seeded in 96-well plates and treated with the indicated compound combinations. The cellular viability (cell number) was measured with alamarBlue® and arbitrary units of fluorescence after 36 h of treatment (vertical axis).
FIG. 7. […] A549 cells were seeded on 96-well culture plates and after 4 h were treated with the indicated concentrations of doxorubicin in absence or presence of T12 (50 μM) and/or CFTR-inhibitor-172 (25 μM). Cells were cultured for additional 36 h and cell viability assessed as in FIG. 2.
A549 human lung adenocarcinoma cancer cells (CLS Cell Lines Service) were used as an ex vivo model for the assessment of anti-tumor activity of specific compounds. Unless otherwise indicated A549 cells were cultured in DMEM: Ham's F12 medium supplemented with 2 mM L-glutamine and 10% fetal bovine serum. A549 cells resistant to doxorubicin (A549-DR) were obtained treating cells with 1 μM for 4 weeks. A549 cells were transfected with a plasmid that expresses GPBP-1 and further selected with G418 (Invitrogen) to obtain a cell line (A549-GPBP) that constitutively expresses GPBP-1.
Cytotoxicity assays were performed with alamarBlue® reagent (Invitrogen) according to manufacturer's instructions. A549 cells were seeded on 96-well culture plates (7,500 cells/well) and allowed to settle during 4 h. Then, cells were cultured with individual peptidomimetics at concentrations ranging from 0 to 50 μM, in presence of doxorubicin at concentrations ranging from 0 to 10 μM for 36 h. JLSM cells were harvested by treatment with 0.25% trypsin (Lonza) and plated on collagen I coated 96-well black culture plate (Perkin Elmer) at a density of 10.000 cells per cm^2. After 4 h settling, cells were treated with different peptidomimetics (with or without doxorubicin) for 36 h. Subsequently alamarBlue® reagent was added and incubation maintained for 3 h. Fluorescence was measured using 560EX nm/590EM nm filter settings with a SpectraMax GeminiXPS (Molecular Devices). Blank wells containing media were used to determine background fluorescence.
The activity shown for each compound in Table 1 is the factor by which doxorubicin LC50 is reduced by the compound at a 50-μM concentration in A549 cell cultures. […] The symbols −, −/+, +, ++, +++, ++++ in the third column are used to show relative activities of compounds in a simplified way.

[3] = tested on: PARP cleavage in A549 cells; assay: Flow cytometry of cleaved PARP (caspase-3-mediated apoptosis) in A549 cells; format: cell-based, human; details: doxorubicin 1 μM, T12 50 μM, 36 h
Description: FIG. 5. T12 enhances doxorubicin-induced caspase 3-mediated apoptosis. A549 cells were incubated with doxorubicin (1 μM) and/or T12 (50 μM) for 36 h. Subsequently, cells were stained with a PE conjugated antibody specific for human PARP-cleaved fragments and further analyzed by flow cytometry. Data are expressed as fold respect to untreated control cells. Shown is a representative experiment.
Caspase-3 activation in A549 cells was evaluated by flow cytometry using a human anti-cleaved PARP antibody conjugated to PE (BD Biosciences). Briefly, after treatment, the cells were collected by centrifugation and suspended in Perm/Wash™ (BD Biosciences) buffer for 20 min, washed and then incubated for 30 min with the antibody. Subsequently, the cells were rinsed and further analyzed by flow cytometry (BD FacsVerse™ cytometer, BD Biosciences).

A549 cells [4] = assay: T12 LC50 in A549 cells cultured without serum to expand the CSC/SP compartment; format: cell-based; details: Homo sapiens
Description: FIG. 16. GPBP is over-expressed in A549 cells grown in B-ALI media that allows CSC/SP expansion. Bars represent the relative expression of the indicated genes in A549 cells grown with the indicated culture medium during the indicated times. A549 cells grown in DMEM: Ham's F12 medium supplemented with 2 mM L-glutamine and 10% fetal bovine serum (day 0) were used as reference.
Chemoresistance is widely accepted to depend on epigenetic changes occurring at the CSC/SP compartment (Alberts et al. 2007). Accordingly GPBP-mediated doxorubicin resistance is expected to occur on CSC/SP compartment. To test this we cultured A549 cells in the absence of serum using culture conditions known to expand CSC/SP compartment.

COc1ccc(-c2ccc(-c3cccc(C)c3)c(C)c2)c(CCC(=O)O)c1 [T12, 3-[4″-methoxy-3,2′-dimethyl-(1,1′;4′,1″)terphenyl-2″-yl] propionic acid]
induction of CDKN1A (p21) and DDIT3 (CHOP) expression together with doxorubicin [1]: synergistic
A549 cell viability, compound without doxorubicin (A549 cells [2]; 36 h, alamarBlue): did not alter cell viability
Activity as enhancer of doxorubicin-induced cell death, relative activity symbol (A549 cells [2]; compound at 50 μM, A549 cell cultures): +++
effect on doxorubicin LC50 for A549 cells (A549 cells [2]; compound combined with doxorubicin): reduced doxorubicin LC50 for A549 cells in a dose-dependent manner
doxorubicin-induced PARP cleavage [3]: enhanced
CC50 (A549 cells [4]; A549, A549 comparison culture (CSC/SP not expanded)): 125 µM
CC50 (A549 cells [4]; A549, A549 cultured in the absence of serum, expanded CSC/SP compartment): 15 µM
